# Results published in US9573904B2, “Aromatic compound and use thereof” (Sumitomo Chemical Company, Limited, priority 2013, dated 2017).
# Columns and labels:
# Format in all cases: in vivo
# [1] = system: cucumber anthracnose fungus (Colletotrichum lagenarium); assay: Test Example 9 and Comparative Test Example: cucumber anthracnose control, foliar spray; settings: 200 ppm spray on cucumber (SAGAMI HANJIRO); inoculated one day after spraying
# [2] = system: cucumber target leaf spot fungus (Corynespora cassiicola); assay: Test Example 10: cucumber target leaf spot control, foliar spray; settings: 200 ppm spray on cucumber (SAGAMI HANJIRO)
# [3] = system: wheat rust fungus (Puccinia recondita); assay: Test Example 2: wheat rust control, foliar spray; settings: 500 ppm spray on wheat (SHIROGANE)
smiles,measurement,setting,value
"COC(=O)Oc1ccccc1COc1ccc(C)cc1C [2-[(2,4-dimethylphenoxy)methyl]phenyl=methyl=carbonate]",area of lesion on the treated plant relative to that on an untreated plant,[1],≥ 70%
CNC(=O)Oc1cccc(C)c1COc1ccc(-c2nn(C)c(Cl)c2C)cc1C [present compound 7],area of lesion on the treated plant relative to that on an untreated plant,[2],≤ 30%
CNC(=O)Oc1c(C)cccc1COc1ccc(-c2nn(C)c(Cl)c2C)cc1C [present compound 6],area of lesion on the treated plant relative to that on an untreated plant,[3],≤ 30%
